The values that follow come from patent US9617282B2, “Macrocyclic compounds as IRAK4 inhibitors for the treatment of inflammatory diseases” (BIOGEN MA INC., priority 2013, dated 2017).

Each structure is given as a SMILES string.

Sequence of IRAK4 (Q9NWZ3 whole entry, species assumed): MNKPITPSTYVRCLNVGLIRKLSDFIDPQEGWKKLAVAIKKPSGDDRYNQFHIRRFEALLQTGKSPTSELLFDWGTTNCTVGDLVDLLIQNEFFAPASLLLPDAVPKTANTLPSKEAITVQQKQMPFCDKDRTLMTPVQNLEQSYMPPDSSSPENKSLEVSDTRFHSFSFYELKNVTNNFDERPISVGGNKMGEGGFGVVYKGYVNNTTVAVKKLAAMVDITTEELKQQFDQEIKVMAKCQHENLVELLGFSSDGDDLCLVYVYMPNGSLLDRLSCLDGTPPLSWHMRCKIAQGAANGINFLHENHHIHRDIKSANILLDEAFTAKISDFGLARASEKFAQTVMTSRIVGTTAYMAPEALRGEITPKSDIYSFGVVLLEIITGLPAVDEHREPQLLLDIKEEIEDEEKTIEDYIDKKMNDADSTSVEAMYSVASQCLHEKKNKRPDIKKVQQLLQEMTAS

The first test concerns the target IRAK4 (Homo sapiens (Human), UniProt Q9NWZ3). The test is described as follows: IRAK-4 biochemical kinase assay, AlphaScreen format. The conditions noted are these: 1 nM IRAK4, 1.6 μM peptide, 10 μM ATP, 3.5 h at RT; class symbols. The method, then:
The biochemical assay is in a AlphaScreen format. The kinase reaction is based on the IRAK-4 phosphorylation of a biotin labeled peptide. The phosphopeptide is incubated with anti-phosphothreonine antibody as well as streptavidin- and protein A-coated beads. Binding of the protein-A coated beads to the antibody and the streptavidin beads to the peptide, leads to an energy transfer from one bead to the other, ultimately producing a luminescent/fluorescent signal.
The IC50 is the concentration that inhibits the measured activity by half. Low readings indicate greater potency, high ones weaker potency. `CN1CCN(C(=O)c2ccc3c(c2)NC(=O)c2csc(n2)-c2ccnc(c2)NCCCCCO3)CC1` [Compound 23] showed a concentration for half-maximal inhibition (IC50) of less than 0.1 µM. In the case of `O=C1Nc2ccccc2OCCCCCOc2cc(ccn2)-c2nc1co2` [Compound 3], the IC50 is less than 1 µM. The same measure, in the same setting: under `O=C1Nc2cn(C3CCOCC3)nc2C(=O)NCCCOCCCc2cc(ccn2)-c2nc1cs2` [Example 216] stands less than 0.1 µM; under `O=C1Nc2cn(C3CCOCC3)nc2C(=O)NCCN(C(=O)CCO)CCCc2cc(ccn2)-c2nc1cs2` [Example 188], less than 0.1 µM. In turn, `Cn1cc2c(n1)C(=O)NCCCOCCCc1cc(ccn1)-c1nc(cs1)C(=O)N2` [Example 215] gave a 50% inhibitory concentration (IC50) of less than 0.1 µM.

`O=C(NCCN1CCOCC1)c1ccc2c(c1)NC(=O)c1csc(n1)-c1ccnc(c1)NCCCCCO2` [Compound 19] displayed an IC50 of less than 0.1 µM. Same read-out and setting: the value for `NC(=O)CN1CCCc2cc(ccn2)-c2nc(cs2)C(=O)Nc2cn(C3CCOCC3)nc2C(=O)NCC1` [Example 175] was less than 1 µM. Still for that read-out and setting: under `O=C1Nc2cn(C3CCOCC3)nc2C(=O)NCCOCCOc2cc(ccn2)-c2csc1n2` [Example 214] stands less than 1 µM; under `O=C(O)CCC1NC(=O)c2nn(C3CCOCC3)cc2NC(=O)c2csc(n2)-c2ccnc(c2)CCCNC1=O` (stereo not drawn) [Example 194], less than 10 µM.

`O=C1Nc2cc(C(=O)N3CCOCC3)ccc2OCCCCCNc2cc(ccn2)-c2nc1cs2` [Compound 22] registered a concentration for half-maximal inhibition (IC50) of less than 0.1 µM. The same measure, in the same setting: under `O=C1Nc2cc(Br)ccc2OCCCCCNc2cc(ccn2)-c2nc1cs2` [Example 73] stands less than 0.1 µM; under `Cn1cc2c(n1)C(=O)NCCCCNc1cc(ccn1)-c1nc(co1)C(=O)N2` [Compound 31], less than 0.1 µM. For the molecule `O=C1Nc2ccccc2OC2CCC(CCc3cc(ccn3)-c3nc1co3)CC2` [Example 81], the IC50 is less than 0.1 µM. The same measure, in the same setting: under `O=C1Nc2ccccc2OCCCCCCn2cc(cn2)-c2nc1cs2` [Example 72] stands less than 0.1 µM; under `O=C1Nc2cn(C3CCNCC3)nc2C(=O)NCCOCCOc2cc(ccn2)-c2nc1cs2` [Example 165], less than 0.1 µM; under `CC(C)N1CCCc2cc(ccn2)-c2nc(cs2)C(=O)Nc2cn(C3CCOCC3)nc2C(=O)NCC1` [Example 174], less than 0.1 µM.

`O=C1Nc2cc(CCCN3CCCCC3)ccc2OCCCCCNc2cc(ccn2)-c2nc1cs2` [Compound 26] yielded a concentration for half-maximal inhibition (IC50) of less than 0.1 µM. Consider `O=C1c2csc(n2)-c2ccnc(c2)OCCCCOCC2CCCN12` (stereo not drawn) [Example 106], for which the half-inhibitory concentration (IC50) is less than 10 µM. `NC(=O)CCC1NC(=O)c2nn(C3CCOCC3)cc2NC(=O)c2csc(n2)-c2ccnc(c2)CCCNC1=O` (stereo not drawn) [Example 195] displayed a concentration for half-maximal inhibition (IC50) of less than 1 µM.

Regarding `CN1CCOCCNC(=O)c2nn(CCN3CCCCC3)cc2NC(=O)c2csc(n2)-c2ccnc1c2` [Example 221], the IC50 was less than 0.1 µM.

The molecule `O=C1NCCOC2CCC(CC2)CNc2cc(ccn2)-c2nc1cs2` [Example 88] returned a half-inhibitory concentration (IC50) of less than 10 µM. Consider `CN(C)CCNC(=O)c1ccc2c(c1)OCCCCCNc1cc(ccn1)-c1nc(cs1)C(=O)N2` [Compound 25], for which the IC50 was less than 0.1 µM. Same read-out and setting: the value for `CC(C)(C)OC(=O)N1CCC(CCn2ncc3c2C(=O)NCCOCCOc2cc(ccn2)-c2nc(cs2)C(=O)N3)CC1` [Example 157] was less than 10 µM; that for `O=C1Nc2cn(C3CCOCC3)nc2C(=O)NCCCc2cc(ccn2)-c2nc1cs2` [Example 192] was less than 10 µM. Same read-out and setting: under `CN1CCN(CCn2ncc3c2C(=O)NCCOCCOc2cc(ccn2)-c2nc(cs2)C(=O)N3)CC1` [Example 141] stands less than 10 µM.

With `CCN1CCCCCCCCN(CC)c2cc(ccn2)-c2nc(cs2)C1=O` [Example 65], the IC50 was less than 10 µM. Same read-out and setting: the value for `CN(C)C1CCN(C(=O)c2ccc3c(c2)NC(=O)c2csc(n2)-c2ccnc(c2)NCCCCCO3)C1` (stereo not drawn) [Compound 21] was less than 0.1 µM; that for `O=C1Nc2ccccc2OCCCCCNc2cc(ccn2)-c2nc1cs2` [Compound 13] was less than 0.1 µM; that for `O=C1Nc2cn(C3CCOCC3)nc2C(=O)NCCCCCn2cc(cn2)-c2nc1co2` [Compound 42] was less than 1 µM. Regarding `CN1CCOCCNC(=O)c2nn(CCN3CCOCC3)cc2NC(=O)c2csc(n2)-c2ccnc1c2` [Example 220], the half-maximal inhibitory concentration (IC50) is less than 0.1 µM.

In turn, `O=C1NCc2ccc(cc2)OCCOc2cc(ccn2)-c2nc1co2` [Example 78] showed a concentration for half-maximal inhibition (IC50) of less than 10 µM. On the same count and under the same terms, under `O=C1Nc2cn(C3CCOCC3)nc2C(=O)NCCOCCOc2cc(ccn2)-c2cccc1n2` [Example 204] stands less than 1 µM; under `O=C1NCCCCCCCCNc2cc(ccn2)-c2nc1cs2` [Example 64], less than 1 µM; under `NCCC(=O)N1CCCc2cc(ccn2)-c2nc(cs2)C(=O)Nc2cn(C3CCOCC3)nc2C(=O)NCC1` [Example 178], less than 0.1 µM. `CC(C)(CO)C(=O)N1CCCc2cc(ccn2)-c2nc(cs2)C(=O)Nc2cn(C3CCOCC3)nc2C(=O)NCC1` [Example 185] returned a half-inhibitory concentration (IC50) of less than 0.1 µM. For the molecule `CN1CCCCNC(=O)c2nn(C)cc2NC(=O)c2csc(n2)-c2ccnc1c2` [Example 223], the concentration for half-maximal inhibition (IC50) was less than 0.1 µM. Take `CCOC(=O)CC(=O)N1CCCc2cc(ccn2)-c2nc(cs2)C(=O)Nc2cn(C3CCOCC3)nc2C(=O)NCC1` [Example 189]: the half-inhibitory concentration (IC50) was less than 0.1 µM. In the case of `CCN1CCCCCCOc2cc(ccn2)-c2nc(co2)C1=O` [Compound 53], the IC50 was less than 0.1 µM.

Take `CN(C)CCC(=O)N1CCCc2cc(ccn2)-c2nc(cs2)C(=O)Nc2cn(C3CCOCC3)nc2C(=O)NCC1` [Example 177]: the IC50 is less than 0.1 µM. Molecule `Cn1cc2c(n1)C(=O)NCCOCCOc1cc(ccn1)-c1cccc(n1)C(=O)N2` [Example 203] yielded an IC50 of less than 0.1 µM. In the case of `CN1CCC(CCn2ncc3c2C(=O)NCCOCCOc2cc(ccn2)-c2nc(cs2)C(=O)N3)CC1` [Example 156], the IC50 is less than 10 µM. Same read-out and setting: the value for `CC1CCCCNc2cc(ccn2)-c2nc(co2)C(=O)Nc2ccccc2O1` (stereo not drawn) [Example 69] was less than 0.1 µM. On the same count and under the same terms, the value for `Cn1cc2c(n1)C(=O)NCCC/C=C/CCCN(C(=O)OC(C)(C)C)c1cc(ccn1)-c1nc(co1)C(=O)N2` [Compound 28] was less than 1 µM. On to `O=C1Nc2cn(C3CCOCC3)nc2C(=O)NCCCCOc2cc(ccn2)-c2nc1co2` [Compound 36], for which the half-maximal inhibitory concentration (IC50) was less than 0.1 µM. `O=C1CCc2cc(ccn2)-c2nc(cs2)C(=O)Nc2cn(C3CCOCC3)nc2C(=O)NCCN1` [Example 225] returned a concentration for half-maximal inhibition (IC50) of less than 0.1 µM. On the same count and under the same terms, the value for `Cn1cc2c(n1)C(=O)NCCCCCc1cc(ccn1)-c1nc(co1)C(=O)N2` [Compound 39] was less than 0.1 µM; that for `O=C1c2coc(n2)-c2ccnc(c2)NCCCCCOCC2CCCN12` (stereo not drawn) [Compound 59] was less than 0.1 µM. The same measure, in the same setting: the value for `CC(C)(C)OC(=O)N1CCNC(=O)c2nn(C3CCOCC3)cc2NC(=O)c2csc(n2)-c2ccnc(c2)OCC1` [Example 167] was less than 1 µM; that for `O=C1NCCCCCCCCNc2cc(ccn2)-c2nc1co2` [Example 68] was less than 0.1 µM.

The same test, now with this note: 1 nM IRAK4, 1.6 μM peptide, 10 μM ATP, 3.5 h at RT; given as numeric bound.
`CN1CCCCCCOc2cc(ccn2)-c2nc(co2)C1=O` [Compound 52] returned a 50% inhibitory concentration (IC50) of more than 10 µM. On the same count and under the same terms, under `O=C1NCC(C2CCCCC2)OCCCCCNc2cc(ccn2)-c2nc1co2` (stereo not drawn) [Example 77] stands more than 10 µM. Same read-out and setting: the value for `CN(C)CCCN1CCCCCCOc2cc(ccn2)-c2nc(co2)C1=O` [Compound 55] was more than 10 µM; that for `Cn1cc(N2CCCCOc3cnccc3-c3nc(co3)C2=O)cn1` [Example 89] was more than 10 µM; that for `COC(=O)c1ccc2c(c1)NC(=O)c1csc(n1)-c1ccnc(c1)NCCCCCO2` [Compound 14] was more than 10 µM.
